ChEMBL document CHEMBL1132669, “New generation dopaminergic agents. 7. Heterocyclic bioisosteres that exploit the 3-OH-phenoxyethylamine D2 template” (Bioorg Med Chem Lett, 1999)
Active and inactive are the calls of the source. No cut-off for these calls is given here.

What was measured:
D(4) dopamine receptor = molecular target: T1, D(4) dopamine receptor (Homo sapiens, UniProt P21917); assay: Inhibition of [3H]spiperone binding to human Dopamine receptor D4.4 expressed in CHO cell membranes
T1 sequence (P21917 whole entry): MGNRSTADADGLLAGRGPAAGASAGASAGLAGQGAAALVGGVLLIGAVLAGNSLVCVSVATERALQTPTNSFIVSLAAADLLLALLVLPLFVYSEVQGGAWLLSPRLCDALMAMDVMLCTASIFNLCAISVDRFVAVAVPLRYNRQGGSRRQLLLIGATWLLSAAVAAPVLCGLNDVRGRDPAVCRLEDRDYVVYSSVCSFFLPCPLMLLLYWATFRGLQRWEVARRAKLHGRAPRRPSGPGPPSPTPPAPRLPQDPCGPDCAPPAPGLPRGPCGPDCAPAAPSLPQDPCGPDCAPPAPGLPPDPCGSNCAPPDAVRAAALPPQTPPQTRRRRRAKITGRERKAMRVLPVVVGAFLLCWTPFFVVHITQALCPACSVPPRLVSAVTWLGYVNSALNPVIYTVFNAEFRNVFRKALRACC

D(2) dopamine receptor [1] = molecular target: T2, D(2) dopamine receptor (Rattus norvegicus, UniProt P61169); assay: Inhibition of [3H]spiperone binding to rat striatal membrane Dopamine receptor D2 low affinity without GTP and sodium
T2 sequence (P61169 whole entry): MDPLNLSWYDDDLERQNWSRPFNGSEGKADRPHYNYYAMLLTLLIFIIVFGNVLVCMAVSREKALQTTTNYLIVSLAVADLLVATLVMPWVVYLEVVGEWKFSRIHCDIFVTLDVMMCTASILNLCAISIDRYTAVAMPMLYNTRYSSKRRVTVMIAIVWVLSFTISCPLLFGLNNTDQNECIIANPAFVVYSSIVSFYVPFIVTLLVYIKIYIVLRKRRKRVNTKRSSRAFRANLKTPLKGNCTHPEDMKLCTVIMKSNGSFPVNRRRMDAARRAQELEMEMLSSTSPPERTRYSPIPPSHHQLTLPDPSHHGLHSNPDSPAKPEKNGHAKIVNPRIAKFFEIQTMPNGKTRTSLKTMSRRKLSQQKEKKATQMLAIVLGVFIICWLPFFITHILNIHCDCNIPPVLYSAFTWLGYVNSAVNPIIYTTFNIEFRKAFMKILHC

D(2) dopamine receptor [2] = molecular target: T2, D(2) dopamine receptor; assay: Inhibition of [3H]quinpirole binding to rat striatal membrane Dopamine receptor D2 without GTP and sodium
D(2) dopamine receptor [3] = molecular target: D(2) dopamine receptor (Homo sapiens, UniProt P14416); assay: Inhibition of [3H]spiperone binding to human Dopamine receptor D2 in CHO cell membranes
Sequence of D(2) dopamine receptor (Homo sapiens, UniProt P14416) (P14416 whole entry): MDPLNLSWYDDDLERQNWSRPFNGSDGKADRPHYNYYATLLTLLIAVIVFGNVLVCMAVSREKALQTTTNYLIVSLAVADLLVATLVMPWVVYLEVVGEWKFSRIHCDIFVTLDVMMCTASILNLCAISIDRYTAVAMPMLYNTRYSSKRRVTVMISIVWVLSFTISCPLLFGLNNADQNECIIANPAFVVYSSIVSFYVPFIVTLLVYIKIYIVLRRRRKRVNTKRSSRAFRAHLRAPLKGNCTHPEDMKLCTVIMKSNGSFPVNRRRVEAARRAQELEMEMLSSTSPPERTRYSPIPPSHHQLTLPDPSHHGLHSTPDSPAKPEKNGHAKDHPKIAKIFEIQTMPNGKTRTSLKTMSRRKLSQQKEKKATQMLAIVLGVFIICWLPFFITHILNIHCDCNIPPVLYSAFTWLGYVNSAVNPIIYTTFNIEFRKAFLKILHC

D(3) dopamine receptor = D(3) dopamine receptor (Homo sapiens, UniProt P35462); assay: Inhibition of [3H]spiperone binding to human Dopamine receptor D3 in CHO cell membranes
Sequence of D(3) dopamine receptor (P35462 whole entry): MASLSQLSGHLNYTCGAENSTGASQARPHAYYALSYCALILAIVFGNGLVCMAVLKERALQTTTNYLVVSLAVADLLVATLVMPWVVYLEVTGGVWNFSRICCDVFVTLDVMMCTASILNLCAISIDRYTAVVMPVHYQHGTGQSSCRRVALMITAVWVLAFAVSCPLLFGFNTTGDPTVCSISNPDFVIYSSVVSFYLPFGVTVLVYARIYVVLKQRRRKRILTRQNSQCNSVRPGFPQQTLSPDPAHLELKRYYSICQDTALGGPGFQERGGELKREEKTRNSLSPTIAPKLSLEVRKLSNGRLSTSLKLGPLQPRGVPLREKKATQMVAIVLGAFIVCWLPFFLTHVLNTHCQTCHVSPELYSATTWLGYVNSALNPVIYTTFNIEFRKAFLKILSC

[4] = molecular target: D(2) dopamine receptor (Rattus norvegicus) (UniProt P61169); assay: Relative binding affinity for low and hugh affinity type dopamine D2 receptors in rat striatal membranes; type: cell membranes; details: Striatum, Membrane
Sequence of D(2) dopamine receptor (Rattus norvegicus) (P61169 whole entry): as the sequence (P61169 whole entry) above

Mus musculus [5] = assay: In vivo inhibitory activity against spontaneous locomotory activity in mice administered subcutaneously; type: functional; details: sc
Mus musculus [6] = assay: Inhibitory activity against apomorphine-induced climbing in mice administered subcutaneously at 3 mg/kg; NS is not significant; type: functional, organism-based; design: dose 3 mg/kg
Mus musculus [7] = assay: Inhibitory activity against Sterotypy in mice administered subcutaneously at 3 mg/kg; NS is not significant; type: functional, organism-based; design: dose 3 mg/kg
Mus musculus [8] = assay: Inhibitory activity against Sterotypy in mice administered subcutaneously; type: functional; details: sc
Mus musculus [9] = assay: Inhibitory activity against apomorphine-induced climbing in mice administered subcutaneously; type: functional; details: sc

Row | Compound | Ki (D(4) dopamine receptor) [nM] | Ki (D(2) dopamine receptor [1]) [nM] | Ki (D(2) dopamine receptor [2]) [nM] | Ki (D(2) dopamine receptor [3]) [nM] | Ki (D(3) dopamine receptor) [nM] | Ratio [4] | ED50 (Mus musculus [5]) [mg/kg] | ED50 (Mus musculus [6]) | ED50 (Mus musculus [7]) | ED50 (Mus musculus [8]) [mg/kg] | ED50 (Mus musculus [9]) [mg/kg]
1 | Oc1nc2c(OCCNCc3ccccc3)cc(Cl)cc2[nH]1 |  |  |  |  |  | 11 |  |  |  |  | 
2 | FC(F)(F)c1nc2c(OCCNCc3ccccc3)cc(Cl)cc2[nH]1 | 7 | 11.6 | 0.71 | 32.4 | 41.8 | 16 | 0.35 | inactive | inactive |  | 
3 | O=C1Cc2c(cccc2OCCNCc2ccccc2)N1 | 10 |  |  | 4.25 | 2.8 | 54 |  |  |  |  | 
4 | c1ccc(CNCCOc2cccc3[nH]ccc23)cc1 | 230 |  |  | 81.8 | 19.5 | 4 |  |  |  |  | 
5 | FC(F)(F)c1nc2c(OCCNCc3ccccc3)cccc2[nH]1 | 3.1 | 1.9 | 0.18 | 1.75 | 1.15 | 10 | 0.007 |  |  | 0.33 | 0.09
6 | O=c1[nH]c2cc(Cl)cc(OCCNCc3ccccc3)c2[nH]1 | 15.8 | 2.7 | 0.25 | 2.6 | 7.4 |  |  |  |  |  | 

Continued, in another order:

Row | Ki (D(4) dopamine receptor) [nM] | Ki (D(2) dopamine receptor [1]) [nM] | Ki (D(2) dopamine receptor [2]) [nM] | Ki (D(2) dopamine receptor [3]) [nM] | Ki (D(3) dopamine receptor) [nM] | Ratio [4] | Compound | ED50 (Mus musculus [5]) [mg/kg] | ED50 (Mus musculus [6]) | ED50 (Mus musculus [7]) | ED50 (Mus musculus [8]) [mg/kg] | ED50 (Mus musculus [9]) [mg/kg]
7 | 51.6 | 128 | 9.8 | 85.6 | 67.2 |  | c1ccc(CNCCOc2cccc3nc[nH]c23)cc1 |  |  |  |  | 
8 |  |  |  |  |  | 28 | Oc1cccc(OCCNCc2ccccc2)c1 |  |  |  |  | 
9 | 315 | 35.9 | 1.1 | 79.8 | 8.8 | 33 | c1ccc(CNCCOc2cccc3[nH]ncc23)cc1 |  |  |  |  | 
10 | 6.3 | 4.7 | 0.18 |  |  |  | O=c1[nH]c2cccc(OCCNCc3ccccc3)c2[nH]1 |  |  |  |  | 
11 |  |  |  |  |  | 13 | c1ccc(CNCCOc2cccc3[nH]cnc23)cc1 |  |  |  |  | 
12 | 61.1 | 26.6 | 4.4 | 15.2 | 94.6 | 6 | Cc1nc2c(OCCNCc3ccccc3)cccc2[nH]1 |  |  |  |  | 
13 | 11.2 | 4.5 | 0.21 | 6.5 | 12.2 | 21 | Sc1nc2c(OCCNCc3ccccc3)cc(Cl)cc2[nH]1 |  |  |  |  | 
14 | 3.8 | 2.6 | 0.18 | 3 | 2 |  | S=c1[nH]c2cccc(OCCNCc3ccccc3)c2[nH]1 |  |  |  |  | 
15 |  |  |  |  |  | 14 | Sc1nc2c(OCCNCc3ccccc3)cccc2[nH]1 |  |  |  |  | 
